Columns and labels:
[1] = target: T1, KRASG12D (Homo sapiens, UniProt P01116, G12D); test: Bio-Biochem-PPI-HTRF Ras-SOS1 interaction assay (KRAS G12D); type: biochemical; conditions: 5 nM
T1 construct: made in house; host or cells: E. coli BL21 (DE3)
Summary of the method: (§1)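 Inhibition of His-hSOS1 binding to GST-tagged wild-type or G12D K-Ras is read as HTRF ratio (665/620 nm) following incubation of about 10 minutes or longer, and IC50 values are fitted from duplicate six-point titrations.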

[2] = target: T2, KRASwt (Homo sapiens, UniProt P01116); test: Bio-Biochem-PPI-HTRF Ras-SOS1 interaction assay (KRAS wt); type: biochemical; conditions: 5 nM
T2 construct: made in house; host or cells: E. coli BL21 (DE3)
T2 sequence (P01116 1-188 isoform P01116-2): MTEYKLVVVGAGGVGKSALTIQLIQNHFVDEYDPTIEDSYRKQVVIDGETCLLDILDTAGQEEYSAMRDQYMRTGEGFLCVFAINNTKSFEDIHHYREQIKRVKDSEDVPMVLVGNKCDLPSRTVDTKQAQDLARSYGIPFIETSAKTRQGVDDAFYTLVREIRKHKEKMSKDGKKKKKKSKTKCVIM
Summary of the method: as §1

T1 sequence (P01116 1-188 isoform P01116-2 G12D): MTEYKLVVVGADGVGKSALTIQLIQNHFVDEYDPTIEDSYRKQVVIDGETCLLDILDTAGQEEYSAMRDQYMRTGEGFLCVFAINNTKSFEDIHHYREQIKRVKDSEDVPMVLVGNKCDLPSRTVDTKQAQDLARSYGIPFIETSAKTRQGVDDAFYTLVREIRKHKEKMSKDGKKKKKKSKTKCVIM

Compound | IC50 [1] [µM] | IC50 [2] [µM]
N#Cc1c(N)sc2c(F)ccc(-c3c(Cl)cc4c(N5CCCCC6(CN(C(=O)C7(O)COC7)C6)C5)nc(OC[C@@]56CCCN5C[C@H](F)C6)nc4c3F)c12 [compound 327, 2-amino-4-(6-chloro-8-fluoro-2-(((2R,7aS)-2-fluorotetrahydro-1H-pyrrolizin-7a(5H)-yl)methoxy)-4-(2-(3-hydroxyoxetane-3-carbonyl)-2,6-diazaspiro[3.6]decan-6-yl)quinazolin-7-yl)-7-fluorobenzo[b]thiophene-3-carbonitrile] | < 5 | < 5
N#Cc1c(N)sc2c(F)ccc(-c3c(Cl)cc4c(N5CCCCC6(CN(CC7CC7(F)F)C6)C5)nc(OC[C@@]56CCCN5C[C@H](F)C6)nc4c3F)c12 (stereo partly drawn) [compound 255, 2-amino-4-(6-chloro-4-(2-((2,2-difluorocyclopropyl)methyl)-2,6-diazaspiro[3.6]decan-6-yl)-8-fluoro-2-(((2R,7aS)-2-fluorotetrahydro-1H-pyrrolizin-7a(5H)-yl)methoxy)quinazolin-7-yl)-7-fluorobenzo[b]thiophene-3-carbonitrile] | < 5 | < 5
N#Cc1c(N)sc2c(F)ccc(-c3c(Cl)cc4c(N5CCCC6(CN(C(=O)C7CC7)C6)C5)nc(OC[C@@]56CCCN5C[C@H](F)C6)nc4c3F)c12 [compound 120, 2-amino-4-(6-chloro-4-(2-(cyclopropanecarbonyl)-2,6-diazaspiro[3.5]nonan-6-yl)-8-fluoro-2-(((2R,7aS)-2-fluorotetrahydro-1H-pyrrolizin-7a(5H)-yl)methoxy)quinazolin-7-yl)-7-fluorobenzo[b]thiophene-3-carbonitrile] | < 5 | < 5
N#Cc1c(N)sc2c(F)ccc(-c3c(Cl)cc4c(N5CCOC6(CN(C(=O)[C@H]7CC7(F)F)C6)C5)nc(OC[C@@]56CCCN5C[C@H](F)C6)nc4c3F)c12 (single isomer, unassigned) [compound 176] | < 5 | < 5
C[C@H](Oc1nc(N2CCCC3(CNC3)C2)c2cc(Cl)c(-c3ccc(F)c4sc(N)c(C#N)c34)c(F)c2n1)[C@@H]1CCCN1C [compound 122, 2-amino-4-(6-chloro-8-fluoro-2-((S)-1-((S)-1-methylpyrrolidin-2-yl)ethoxy)-4-(2,6-diazaspiro[3.5]nonan-6-yl)quinazolin-7-yl)-7-fluorobenzo[b]thiophene-3-carbonitrile] | < 5 | < 5
CN1CCC[C@H]1COc1nc(N2CCCC3(CN(C(N)=O)C3)C2)c2cc(Cl)c(-c3cccc4sc(N)nc34)c(F)c2n1 [compound 124, 6-(7-(2-aminobenzo[d]thiazol-4-yl)-6-chloro-8-fluoro-2-(((S)-1-methylpyrrolidin-2-yl)methoxy)quinazolin-4-yl)-2,6-diazaspiro[3.5]nonane-2-carboxamide] | < 5 | < 5
N#Cc1c(N)sc2c(F)ccc(-c3c(Cl)cc4c(N5CC(F)(F)OC6(CN(C(=O)C7CC7(F)F)C6)C5)nc(OC[C@@]56CCCN5C[C@H](F)C6)nc4c3F)c12 (stereo partly drawn) [compound 167, 2-amino-4-(6-chloro-4-(2-(2,2-difluorocyclopropane-1-carbonyl)-6,6-difluoro-5-oxa-2,8-diazaspiro [3.5]nonan-8-yl)-8-fluoro-2-(((2R,7aS)-2-fluorotetrahydro-1H-pyrrolizin-7a(5H)-yl)methoxy)quinazolin-7-yl)-7-fluorobenzo[b] thiophene-3-carbonitrile] | < 5 | < 5
N#Cc1c(N)sc2c(F)ccc(-c3c(Cl)cc4c(N5CCCCC6(CN(C(=O)CCC(F)F)C6)C5)nc(OC[C@@]56CCCN5C[C@H](F)C6)nc4c3F)c12 [compound 337, 2-amino-4-(6-chloro-4-(2-(4,4-difluorobutanoyl)-2,6-diazaspiro[3.6]decan-6-yl)-8-fluoro-2-(((2R,7aS)-2-fluorotetrahydro-1H-pyrrolizin-7a(5H)-yl)methoxy)quinazolin-7-yl)-7-fluorobenzo[b]thiophene-3-carbonitrile] | < 5 | < 5
COC1CN(C(=O)N2CC3(CCCN(c4nc(O[C@@H](C)[C@@H]5CCCN5C)nc5c(F)c(-c6ccc(F)c7sc(N)c(C#N)c67)c(Cl)cc45)C3)C2)C1 [compound 205, 2-amino-4-(6-chloro-8-fluoro-4-(2-(3-methoxyazetidine-1-carbonyl)-2,6-diazaspiro[3.5]nonan-6-yl)-2-((S)-1-((S)-1-methylpyrrolidin-2-yl)ethoxy)quinazolin-7-yl)-7-fluorobenzo[b] thiophene-3-carbonitrile] | < 5 | < 5
N#Cc1c(N)sc2c(F)ccc(-c3c(Cl)cc4c(N5CCCCC6(CN(C(=O)C7(C(F)F)COC7)C6)C5)nc(OC[C@@]56CCCN5C[C@H](F)C6)nc4c3F)c12 [compound 340, 2-amino-4-(6-chloro-4-(2-(3-(difluoromethyl)oxetane-3-carbonyl)-2,6-diazaspiro[3.6]decan-6-yl)-8-fluoro-2-(((2R,7aS)-2-fluorotetrahydro-1H-pyrrolizin-7a(5H)-yl)methoxy)quinazolin-7-yl)-7-fluorobenzo[b]thiophene-3-carbonitrile] | < 5 | < 5
CN(C(=O)N1CC2(CCCCN(c3nc(OC[C@@]45CCCN4C[C@H](F)C5)nc4c(F)c(-c5ccc(F)c6sc(N)c(C#N)c56)c(Cl)cc34)C2)C1)C1CC1 [compound 234, 6-(7-(2-amino-3-cyano-7-fluorobenzo[b]thiophen-4-yl)-6-chloro-8-fluoro-2-(((2R,7aS)-2-fluorotetrahydro-1H-pyrrolizin-7a(5H)-yl)methoxy)quinazolin-4-yl)-N-cyclopropyl-N-methyl-2,6-diazaspiro[3.6]decane-2-carboxamide] | < 5 | < 5
N#Cc1c(N)sc2c(F)ccc(-c3c(Cl)cc4c(N5CCOC6(CN(C(=O)c7cn[nH]n7)C6)C5)nc(OC[C@@]56CCCN5C[C@H](F)C6)nc4c3F)c12 [compound 163, 4-(4-(2-(2H-1,2,3-triazole-4-carbonyl)-5-oxa-2,8-diazaspiro[3.5]nonan-8-yl)-6-chloro-8-fluoro-2-(((2R,7aS)-2-fluorotetrahydro-1H-pyrrolizin-7a(5H)-yl)methoxy)quinazolin-7-yl)-2-amino-7-fluorobenzo[b]thiophene-3-carbonitrile] | < 5 | < 5

Second part, the compound after the results:

IC50 [1] [µM] | IC50 [2] [µM] | Compound
< 5 | < 5 | N#Cc1c(N)sc2c(F)ccc(-c3c(Cl)cc4c(N5CCOC6(CN(C(=O)[C@@H]7CC7(F)F)C6)C5)nc(OC[C@@]56CCCN5C[C@H](F)C6)nc4c3F)c12 [compound 217, 2-amino-4-(6-chloro-4-(2-((S)-2,2-difluorocyclopropane-1-carbonyl)-5-oxa-2,8-diazaspiro[3.5]nonan-8-yl)-8-fluoro-2-(((2R,7aS)-2-fluorotetrahydro-1H-pyrrolizin-7a(5H)-yl)methoxy)quinazolin-7-yl)-7-fluorobenzo[b]thiophene-3-carbonitrile]
< 5 | < 5 | N#Cc1c(N)sc2c(F)ccc(-c3c(Cl)cc4c(N5CCCCC6(CN(C(=O)[C@@H]7CCOC7)C6)C5)nc(OC[C@@]56CCCN5C[C@H](F)C6)nc4c3F)c12 [compound 230, 2-amino-4-(6-chloro-8-fluoro-2-(((2R,7aS)-2-fluorotetrahydro-1H-pyrrolizin-7a(5H)-yl)methoxy)-4-(2-((R)-tetrahydrofuran-3-carbonyl)-2,6-diazaspiro[3.6]decan-6-yl)quinazolin-7-yl)-7-fluorobenzo[b]thiophene-3-carbonitrile]
< 5 | < 5 | N#Cc1c(N)sc2c(F)ccc(-c3c(Cl)cc4c(N5CCCCC6(CN(C(=O)C7CCC7C#N)C6)C5)nc(OC[C@@]56CCCN5C[C@H](F)C6)nc4c3F)c12 (stereo partly drawn) [compound 345, 2-amino-4-(6-chloro-4-(2-(2-cyanocyclobutane-1-carbonyl)-2,6-diazaspiro[3.6]decan-6-yl)-8-fluoro-2-(((2R,7aS)-2-fluorotetrahydro-1H-pyrrolizin-7a(5H)-yl)methoxy)quinazolin-7-yl)-7-fluorobenzo[b]thiophene-3-carbonitrile]
< 5 | < 5 | Cc1cc(C(=O)N2CC3(CCCCN(c4nc(OC[C@@]56CCCN5C[C@H](F)C6)nc5c(F)c(-c6ccc(F)c7sc(N)c(C#N)c67)c(Cl)cc45)C3)C2)nn1C(F)F [compound 209, 2-amino-4-(6-chloro-4-(2-(1-(difluoromethyl)-5-methyl-1H-pyrazole-3-carbonyl)-2,6-diazaspiro[3.6]decan-6-yl)-8-fluoro-2-(((2R,7aS)-2-fluorotetrahydro-1H-pyrrolizin-7a(5H)-yl)methoxy)quinazolin-7-yl)-7-fluorobenzo[b]thiophene-3-carbonitrile]
< 5 | < 5 | N#Cc1c(N)sc2c(F)ccc(-c3c(Cl)cc4c(N5CCCCC6(CN(C(=O)CN7CCOCC7=O)C6)C5)nc(OC[C@@]56CCCN5C[C@H](F)C6)nc4c3F)c12 [compound 326, 2-amino-4-(6-chloro-8-fluoro-2-(((2R,7aS)-2-fluorotetrahydro-1H-pyrrolizin-7a(5H)-yl)methoxy)-4-(2-(2-(3-oxomorpholino)acetyl)-2,6-diazaspiro[3.6]decan-6-yl)quinazolin-7-yl)-7-fluorobenzo[b]thiophene-3-carbonitrile]
< 5 | < 5 | N#Cc1c(N)sc2c(F)ccc(-c3c(Cl)cc4c(N5CCCCC6(CN(C(=O)C7C8COCC87)C6)C5)nc(OC[C@@]56CCCN5C[C@H](F)C6)nc4c3F)c12 (stereo partly drawn) [compound 238, 4-(4-(2-(3-oxabicyclo[3.1.0]hexane-6-carbonyl)-2,6-diazaspiro [3.6]decan-6-yl)-6-chloro-8-fluoro-2-(((2R,7aS)-2-fluorotetrahydro-1H-pyrrolizin-7a(5H)-yl)methoxy)quinazolin-7-yl)-2-amino-7-fluorobenzo[b]thiophene-3-carbonitrile]
